Measured values taken from patent US8715672B2, “Treatment of diseases linked to pathological kinin formation” (CSL Behring GmbH, priority 2004, dated 2014).

Key:
[1] = test system: intrinsic coagulation pathway; test: aPTT of wildtype mice after infusion of corn trypsin inhibitor; type: in vivo, mouse; conditions: CTI 50 μg/g body weight, n=4
Protocol: (§1) Alternatively, to test the impact of small molecule FXII inhibitors, wildtype mice were infused with the FXII inhibitor corn trypsin inhibitor (CTI, 50 μg/g body weight) 5 min prior to FeCl3-induced injury in the carotic artery (Wang et al. (2005) J. Thromb. Heamost. 3: 695-702). […] In none of the animals tested (0/4) vessel occluding thrombi developed within 30 min following application of FeCl3.
Global and single coagulation parameters were determined with an automated blood coagulation system (BCS, Dade Behring) with Dade Behring reagents according to the protocols for human samples detailed by the manufacturer. Principles of BCS assay protocols are available from Dade Behring package inserts, which can be found on Dade Behring's web site (http://www.dadebehring.com). D-dimers werde measured with the ELISA from Asserachrorn (Roche). Peripheral blood counts were determines on the Sysmex XE 2100 according to standard protocols.

[2] = test system: wildtype mice; test: FeCl3-induced injury in the carotid artery after infusion of corn trypsin inhibitor; type: in vivo, mouse
Protocol: as §1

Question: How did the aPTT [1] turn out when corn trypsin inhibitor [CTI] was run?
Answer: 62 ± 11 s

Question: What about the “animals developing vessel occluding thrombi within 30 min following application of FeCl3” value ([2]; CTI 50 μg/g 5 min prior to injury, carotid artery) of the same substance?
Answer: 0/4

Question: What about the “bleeding during the surgical procedure” value ([2]; CTI 50 μg/g body weight) of the same substance?
Answer: did not affect bleeding
